Laboratory results as given in US5173486A, “Dibenz[b,f][1,4]oxazepin-11(10H)-ones for multidrug resistance reversing agents” (Bristol-Myers Squibb Company, priority 1991, dated 1992).
“And” between values parts separate entries of the source, which are not always exact repeats. Equal values may be shown once. Read-outs that look alike come from different tables or passages of the source. *1 amine or outer side, *2 acyl side, *3 side chain or, on linkers, in order; H or OH if unused. Where a SMILES comes first, the peptide text is derived from it. Bridges are numbered along the chain shown (N, C = ends). Roman numbers before positions name the chains, in order. [ ]: non-standard residue; d: D form. Actinocin(9to1) = Cc1c2oc3c(C)ccc(C(=O)[*:1])c3nc-2c(C(=O)[*:2])c(N)c1=O; NMeV = CN[C@H](C(=O)O)C(C)C; Sar = CNCC(=O)O

Experiments:
Assay type in all cases: cell-based
MCF-7/ADR cells = assay: Cytotoxic assay, MDR reversing effects of chemosensitizers with Adriamycin in human breast carcinoma MCF-7 resistant cells; conditions: for Fold Resistance: ADR; for IC50: read-out: ADR IC50
Description: (§1) Cell Culture: HCT116/VM46 cells were selected from human colon carcinoma HCT116 cell line for resistance to VM26 and MCF-7/ADR cells were selected from human breast carcinoma MCF-7 cell line for resistance to Adriamycin. […] The cell lines were grown in tissue culture flasks containing McCoy's A medium and 10% fetal bovine serum. Cells were maintained at 37° C. in a humidified atmosphere containing 5% CO2 and subcultured every 5 days.
(§2) Cytotoxic Assay: The cells were seeded in 96 well microtiter plates at 5×10^3 cells per well and allowed to grow for 24 hours at 37° C. Cells were then incubated with decreasing amounts of antitumor agents: Adriamycin (100 μM, maximal concentration) or actinomycin D (17.6 ng/ml), for MCF-7 and HCT-116 cells, respectively. Chemosensitizers were added at variable concentrations ranging from 0.08 μM to 40 μM. In parallel, verapamil was used as positive control at the same concentrations. After 48 hours of incubation, the cells were washed, fixed and stained with crystal violet. Absorbance was read by Molecular Devices' microtiter plate reader at the wavelength of 595nm. The IC50 value (50% inhibition of cell growth) was determined from relative survival rates resulted from two to three independent experiments. The term "fold resistance" was defined as the ratio of the IC50 for antitumor drug in the presence or absence of chemosensitizer in resistant cells divided by the IC50 for antitumor drug in its sensitive counterpart. This value provides an estimate of the apparent potency of each reversing agent in enhancing drug effect.

MCF-7 cells = assay: Cytotoxic assay, Adriamycin in sensitive human breast carcinoma MCF-7 cells; conditions: MCF-7 (sensitive); ADR; no chemosensitizer; 2880 min
Description: as §1
as §2, with “The term "fold resistance" was defined as the ratio of the IC50 for antitumor drug in the presence or absence of chemosensitizer in resistant cells divided by the IC50 for antitumor drug in its sensitive counterpart. This value provides an estimate of the apparent potency of each reversing agent in enhancing drug effect.” left out

HCT-116/VM46 cells = assay: Cytotoxic assay, MDR reversing effects of chemosensitizers with actinomycin D in human colon carcinoma HCT-116 resistant cells; conditions: for Fold Resistance: ActD; for ActD IC50: 48 hours
Description: as §1, §2

HCT116 cells = assay: Cytotoxic assay, actinomycin D in sensitive human colon carcinoma HCT116 cells; conditions: no chemosensitizer
Description: as §1
as §2, with “The term "fold resistance" was defined as the ratio of the IC50 for antitumor drug in the presence or absence of chemosensitizer in resistant cells divided by the IC50 for antitumor drug in its sensitive counterpart. This value provides an estimate of the apparent potency of each reversing agent in enhancing drug effect.” left out

[1] = chemosensitizer 0.4 μM, IC50 ratio to sensitive HCT116

## COc1cccc2c1C(=O)c1c(O)c3c(c(O)c1C2=O)C[C@@](O)(C(=O)CO)C[C@@H]3O[C@H]1C[C@H](N)[C@H](O)[C@H](C)O1 [ADR, reference compound]
MCF-7/ADR cells; no chemosensitizer, IC50 ratio to sensitive MCF-7, 2880 min
  Fold Resistance: 138.9
MCF-7/ADR cells; Homo sapiens, 48 h
  IC50: 50 µM
MCF-7 cells
  Fold Resistance: 1

## Cc1c2oc3c(C)ccc(C(=O)N[C@@H]4C(=O)N[C@H](C(C)C)C(=O)N5CCC[C@H]5C(=O)N(C)CC(=O)N(C)[C@@H](C(C)C)C(=O)O[C@@H]4C)c3nc-2c(C(=O)N[C@@H]2C(=O)N[C@H](C(C)C)C(=O)N3CCC[C@H]3C(=O)N(C)CC(=O)N(C)[C@@H](C(C)C)C(=O)O[C@@H]2C)c(N)c1=O [ActD, reference compound] (I: T[dV]P[Sar][NMeV] / II: T[dV]P[Sar][NMeV]; ester I:1-I:C, II:1-II:C; linker I:N-II:N via Actinocin(9to1))
HCT-116/VM46 cells; no chemosensitizer, IC50 ratio to sensitive HCT116, 2880 min, 2880 min
  Fold Resistance: 15.6 and 20.0
HCT116 cells; ActD, 2880 min
  Fold Resistance: 1.0
HCT116 cells; 48 hours
  ActD IC50: 0.5 ng/mL

## CCN(CC)CCN1C(=O)c2cc(Cl)c(NC(=O)C(C)C)cc2Oc2cc(C(F)(F)F)ccc21 [Ii, N-[2-Chloro-10,11-dihydro-10-[2-(diethylamino)ethyl-11-oxo-7-(trifluoromethyl)dibenz[b.f]1,4]oxezpin-3-yl]-2-methylpropionamide]
HCT-116/VM46 cells; [1]
  Fold Resistance: 3.4
HCT-116/VM46 cells; chemosensitizer 0.4 μM
  ActD IC50: 1.7 ng/mL
MCF-7/ADR cells; chemosensitizer 0.67 μM, IC50 ratio to sensitive MCF-7
  Fold Resistance: 28.9
MCF-7/ADR cells; chemosensitizer 0.67 μM, 48 hours
  IC50: 10.4 µM

## C=C(CC)C(=O)c1ccc(OCC(=O)Nc2cc3c(cc2Cl)C(=O)N(CCN(CC)CC)c2ccc(C(F)(F)F)cc2O3)c(Cl)c1Cl [Io]
HCT-116/VM46 cells; [1]
  Fold Resistance: 3.6
HCT-116/VM46 cells; chemosensitizer 0.4 μM
  ActD IC50: 1.8 ng/mL

## CCN(CC)CCN1C(=O)c2cc(Cl)c(NC(=O)C3CCCC3)cc2Oc2cc(C(F)(F)F)ccc21 [Ip]
HCT-116/VM46 cells; chemosensitizer 0.24 μM, IC50 ratio to sensitive HCT116
  Fold Resistance: 3.4
HCT-116/VM46 cells; chemosensitizer 0.24 μM
  ActD IC50: 1.7 ng/mL
